Data on 18 compounds can be found in US20210267996A1, “Compounds for inhibition of inflammation” (Children`s Medical Center Corporation, priority 2018, published 2021).

Assay [1] concerns mouse iBMDMs. In words: Non-canonical inflammasome pyroptosis, iBMDMs with LPS electroporation. The assay is classed as cell-based. How it is done:
Cell lines and treatments: THP-1 cells and HEK293T cells (obtained from ATCC) were grown in RPMI with 10% heat-inactivated fetal bovine serum, supplemented with 100 U/ml penicillin G, 100 μg/ml streptomycin sulfate, 6 mM HEPES, 1.6 mM L-glutamine, and 50 μM 2ME. C57BL/6 mouse iBMDM cells were kindly provided by J. Kagan (Boston Children's Hospital) and cultured in DMEM with the same supplements. Cells were verified to be free of mycoplasma contamination. Transient transfection of HEK293T cells was performed using Lipofectamine 2000 (Invitrogen) according to the manufacturer's instructions. iBMDM cells were transfected by nucleofection using the Amaxa Nucleofector kit (VPA-1009). […] To examine IκBα. phosphorylation and degradation as well as IL-1β induction, PMA-differentiated THP-1 cells were stimulated with LPS (1 μg/ml) for 0.5, 1 and 4 hrs, respectively. For noncanoical inflammasome activation, 1 million iBMDM cells were electroporated with 1 μg ultra LPS.
Cytotoxicity and cell viability assays: cell death and cell viability were determined by the lactate dehydrogenase release assay using the CytoTox 96 Non-Radioactive Cytotoxicity Assay kit (Promega) and by measuring ATP levels using the CellTiter-Glo Luminescent Cell Viability Assay (Promega), respectively, according to the manufacturer's instructions. Luminescence and absorbance were measured on a BioTek Synergy 2 plate reader.
In FIGS. 4, 6, and 8, PMA-differentiated LPS-primed human THP-1 were pre-treated with indicated concentrations of each compound for 1 h before adding nigericin or medium. The number of surviving cells was determined by CellTiter-Glo assay (FIGS. 4 and 6) and IL-1β in culture supernatants was assessed by ELISA (FIG. 8) 2 hrs later. In FIGS. 5, 7, and 9, mouse iBMDMs were pre-treated with each test compound for 1 hr before electroporation with PBS or LPS. The number of surviving cells was determined by CellTiter-Glo assay (FIGS. 5 and 7) and IL-1β in culture supernatants was assessed by ELISA (FIG. 9) 2.5 hrs later. In FIGS. 8 and 9, 40 μM concentration of test compounds were added.

A further assay deals with THP-1 cells. The experiment in a line: Canonical inflammasome pyroptosis, LPS-primed THP-1 cells plus nigericin. Particulars: for inhibition of canonical inflammasome pyroptosis: THP-1, nigericin. The assay is classed as cell-based, human.
Another assay addresses T1, Human GSDMD (Homo sapiens, UniProt P57764).
T1 construct: His6-MBP (N, cleaved yes); made in house; host or cells: E. coli BL21 (DE3) for GSDMD; Sf9 for caspase-11
T1 sequence (P57764 1-484): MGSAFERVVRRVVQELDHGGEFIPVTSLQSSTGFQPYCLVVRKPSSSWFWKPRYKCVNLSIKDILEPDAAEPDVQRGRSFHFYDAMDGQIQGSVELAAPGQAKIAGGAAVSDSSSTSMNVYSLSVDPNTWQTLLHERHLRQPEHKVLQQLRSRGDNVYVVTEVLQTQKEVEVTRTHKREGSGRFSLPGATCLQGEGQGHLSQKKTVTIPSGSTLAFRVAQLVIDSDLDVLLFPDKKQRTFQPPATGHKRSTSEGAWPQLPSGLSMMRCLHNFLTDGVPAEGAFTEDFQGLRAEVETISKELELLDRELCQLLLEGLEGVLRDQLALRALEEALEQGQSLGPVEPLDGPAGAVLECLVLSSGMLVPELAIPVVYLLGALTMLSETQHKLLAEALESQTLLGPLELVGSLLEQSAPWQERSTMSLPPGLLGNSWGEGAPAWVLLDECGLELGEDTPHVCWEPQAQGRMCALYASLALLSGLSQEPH
In words: Liposome leakage assay (Tb3+/DPA), GSDMD plus caspase-11. The assay is classed as biochemical. How it is done: The lipid mixture was suspended in 1 mL Buffer A (20 mM HEPES, 150 mM NaCl, 50 mM sodium citrate, and 15 mM TbCl3) for 3 min. The suspension was pushed through 100 nm Whatman® Nuclepore™ Track-Etched Membrane 30 times to obtain homogeneous liposomes. The filtered suspension was purified by size exclusion column (Superose 6, 10/300 GL) in Buffer B (20 mM HEPES, 150 mM NaCl) to remove TbCl3 outside liposomes. […] The liposomes are diluted to 50 μM with Buffer C (20 mM HEPES, 150 mM NaCl and 50 μM DPA) for use in high-throughput screening.

A further assay has as its system HT-29 cells. In words: Necroptosis induced by TNFα, SMAC mimetic and z-VAD-fmk. The assay is classed as cell-based. Particulars: SMAC mimetic.
Assay [2] concerns mouse iBMDMs. The experiment in a line: Processing of caspase-1, GSDMD and IL-1β in iBMDMs (immunoblot). Particulars: 1 hr time point. The assay is classed as cell-based. How it is done: FIG. 97 contains a bar graph showing results of an experiment where LPS-primed THP-1 cells, after medium removal, were incubated with probe FAM-YVAD-FMK in FLICA assay buffer for another 0.5 hr before fluorescence reading. iBMDMs were pretreated with disulfiram, Bay 11-7082, necrosulfonamide (NSA) or z-VAD-fmk for 1 hr before treated or not with Nigericin for 0.5 hr. Whole cell lysates and culture supernatants were immunoblotted with the indicated antibodies.
FIG. 98 contains a bar graph showing results of an experiment where LPS-primed THP-1 cells, after medium removal, were incubated with probe FAM-YVAD-FMK in FLICA assay buffer for another 0.5 hr before fluorescence reading. iBMDMs were pretreated with disulfiram, Bay 11-7082, necrosulfonamide (NSA) or z-VAD-fmk for 1 hr before treated or not with Nigericin for 1 hr. Whole cell lysates and culture supernatants were immunoblotted with the indicated antibodies.
Canonical inflammasome assembly activates caspase-1, which cleaves pro-IL-1β and GSDMD, and the latter is needed to release processed IL-1β and to induce pyroptosis. To assess which steps in NLRP3-mediated inflammation were inhibited post ASC speck formation, LPS-primed THP-1 cells were treated with vehicle, 30 μM z-VAD-fmk or disulfiram 1 hour before adding nigericin, and cleavage and activation of caspase-1, GSDMD, and pro-IL-1β were analysed by immunoblot of whole cell lysates 30 min later and 1 hr later. Secretion of processed IL-1β was also assessed by immunoblot of culture supernatants. […] The 1 hr time point is relevant as the cell death and IL-1β release measurements used cells stimulated with nigericin for 1 and 2 hrs, respectively.
A general note: Immunoblotting shows a protein as a band on a membrane.

Setting [3] is: Table 2, leakage assay, read-out: IC50.

Entries after “also recorded” stand apart in the source; their conditions may differ. Where a name gives a salt, the structure may show the parent alone. Read-outs that look alike come from different tables or passages of the source.

Description for HT-29 cells: Inhibition was shown by cell survival, assessed by CellTiter-Glo ATP luminescence, and membrane permeabilization, assessed by uptake of the membrane-impermeable dye SYTOX Green.
Protocol for THP-1 cells: Cell viability assay. […] Primed THP-1 cells were pretreated with each test compound for 1 hr before addition of 20 μM nigericin or medium as control. The number of surviving cells was determined by CellTiter-Glo assay 1.5 hrs later. The final percent cell viability was calculated using the formula [(luminescencetest compound−luminescencencenegative control)/(luminescencencepositive control−luminescencenegative control)]×100, where wells with only LPS were used as positive controls and wells treated with LPS and nigericin were used as negative controls.
In FIGS. 4, 6, and 8, PMA-differentiated LPS-primed human THP-1 were pre-treated with indicated concentrations of each compound for 1 h before adding nigericin or medium. The number of surviving cells was determined by CellTiter-Glo assay (FIGS. 4 and 6) and IL-1β in culture supernatants was assessed by ELISA (FIG. 8) 2 hrs later. […] In FIGS. 8 and 9, 40 μM concentration of test compounds were added. […] Graphs show the mean±s.d. and data shown are representative of three independent experiments. **P<0.01.

Take `COc1ccc(-c2cc(=S)ss2)cc1` [C-22]: the “inhibition of non-canonical inflammasome pyroptosis” value in the assay with mouse iBMDMs [1] was “Only C-23 blocked pyroptosis”. In the assay on THP-1 cells, the “inhibition of canonical inflammasome pyroptosis” value was “Only C-23 blocked pyroptosis”.

In the case of `CN(C)C(=S)SSC(=S)N(C)C` [C-23A1, tetramethylthiuram disulfide], the IC50 (usually the concentration that inhibits the measured activity by half) at Human GSDMD (setting [3]) was found to be 220 ± 10 nM.

For the compound `CC(C)N(C(=S)SSC(=S)N(C(C)C)C(C)C)C(C)C` [C-23A2, Tetraisopropylthiuram disulfide], on Human GSDMD (setting [3]), the IC50 came out at 370 ± 10 nM.

For `CCCCN(CCCC)C(=S)SSC(=S)N(CCCC)CCCC` [C-23A3, tetrabutylthiuram disulfide], the IC50 at Human GSDMD (setting [3]) amounted to 460 ± 80 nM.

On to `CN1CCN(C(=S)SSC(=S)N2CCN(C)CC2)CC1` [C-23A4, 4-Methylpiperazine-1-carbothioic dithioperoxyanhydride], for which the IC50 at Human GSDMD (setting [3]) was 260 ± 10 nM.

As to `S=C(SSC(=S)N(c1ccccc1)c1ccccc1)N(c1ccccc1)c1ccccc1` [C-23A5, Tetraphenylthiuram disulfide], at Human GSDMD (setting [3]), the IC50 was found to be 3740 ± 1060 nM.

In the case of `Cc1ccc(N(C)C(=S)SSC(=S)N(C)c2ccc(C)cc2)cc1` [C-23A6, N,N′-Dimethyl-N,N′-(4,4′-dimethyldiphenyl)thiuram disulfide], at Human GSDMD (setting [3]), the IC50 was determined as 350 ± 30 nM.

With `S=C(SSC(=S)N1CCOCC1)N1CCOCC1` [C-23A7, di(4-morpholinyl)dithioperoxyanhydride], the IC50 on Human GSDMD (setting [3]) was found to be 250 ± 10 nM.

For `CN(C(=S)SSC(=S)N(C)c1ccncc1)c1ccncc1` [C-23A8, N,N′-Dimethyl-N,N′-di(4-pyridinyl)thiuram disulfide], on Human GSDMD (setting [3]), the IC50 was found to be 1250 ± 10 nM.

As for `S=C(SSC(=S)N1CCCCC1)N1CCCCC1` [C-23A9, dicyclopentamethylenethiuram disulfide], the IC50 on Human GSDMD (setting [3]) was 260 ± 3 nM.

Regarding `S=C(SSC(=S)N1CCCC1)N1CCCC1` [C-23A10, pyrrolidine-1-carbothioic dithioperoxyanhydride], the 50% inhibitory concentration (IC50) at Human GSDMD (setting [3]) came to 260 ± 20 nM.

Turning to `CN(C(=S)SSC(=S)N(C)c1ccccc1)c1ccccc1` [C-23A11, dimethyldiphenylthiuram disulfide], on Human GSDMD (setting [3]), the IC50 is 370 ± 10 nM.

As to `S=C(SSC(=S)N(Cc1ccccc1)Cc1ccccc1)N(Cc1ccccc1)Cc1ccccc1` [C-23A12, Tetrabenzylthiuram disulfide], the IC50 on Human GSDMD (setting [3]) turned out to be 2930 ± 1070 nM.

On to `Cc1c(-c2cnccn2)ssc1=S` [C-24], for which the “inhibition of non-canonical inflammasome pyroptosis” value in the assay on mouse iBMDMs [1] is recorded as “Only C-23 blocked pyroptosis”. For the same compound, the “inhibition of canonical inflammasome pyroptosis” value with THP-1 cells is “Only C-23 blocked pyroptosis”.

For the compound `COC(=O)/C=C/C(=O)OC` [DMF, dimethyl fumarate], on Human GSDMD (Cys-reactive comparison compounds), the “activity against GSDMD” value is on record as “lack of activity”.

With `CCN(CC)C(=S)S` [DTC, diethyldithiocarbamate], the “effect of copper gluconate (Cu2+) on inhibition of liposome leakage” value at Human GSDMD (with Cu2+) is “only weakly increased”. In addition, in the assay with THP-1 cells (with Cu2+), the “activity in cells in the presence of Cu2+” value is given as “almost as active as C-23; also recorded: almost as active as disulfiram” and the “effect of Cu2+ on protection of LPS-primed THP-1 cells from pyroptosis” value is given as “strongly promoted”.

Regarding `CN1C(=O)C(Cc2c[nH]c3ccccc23)NC1=S` (stereo not shown) [necrostatin-1], in the assay on HT-29 cells, the necroptosis entry is on record as “blocked”.

For `COc1nccnc1NS(=O)(=O)c1ccc(NC(=O)/C=C/c2ccc([N+](=O)[O-])s2)cc1` [necrosulfonamide], in the assay with HT-29 cells, the necroptosis result is recorded as “blocked”. Moreover, at Human GSDMD (GSDMD plus caspase-11), the “times less active than disulfiram at inhibiting liposome leakage” value was “about 30 fold”. Also, the half-inhibitory concentration (IC50) on Human GSDMD (WT GSDMD, caspase-11-triggered, read-out: IC50 of liposome leakage) was 9500 ± 430 nM. Besides, the “processing of caspase-1, GSDMD and IL-1β” value in the assay on mouse iBMDMs [2] is “still inhibited processing”.
